Data on 15 molecules can be found in patent US9365619B2, “IgG-binding peptide and method for detecting and purifying IgG using same” (Otsuka Chemical Co., Ltd., priority 2011, dated 2016).

Like-named read-outs stand apart in the source and are kept apart here. Bridge positions count the residues as written; N and C are the ends. Peptide text beside a SMILES is read from it.

This test concerns the target human IgG. Nature of the test: Surface plasmon resonance (SPR) analysis of synthetic peptide binding to human IgG. The conditions noted are these: for affinity compared with the original peptide, in words: compared with GFc-C35-3/15; for affinity compared with the parent peptide, in words: compared with GFc-C35-3/15 (T7H, N8R). As for the experimental part: In order to narrow down the amino acid region to be studied, a peptide in which one amino acid was deleted from each end of GFc-C35 (GFc-C35-2/16) and a peptide in which two amino acids were deleted from each end of CFc-C35 (GFc-C35-3/15) were synthesized. Among these peptides, based on the GFc-C35-3/15 synthetic peptide, the effect of the introduction of amino acid mutations on affinity was evaluated. That is, the contribution of each amino acid substitution to affinity was evaluated by synthesizing peptides substituted with frequently or occasionally observed amino acids obtained from the phage libraries and subjecting the resulting synthetic peptides to binding analysis.
Based on the synthetic peptide C35A, peptides substituted with amino acids observed at high frequency in the aforementioned phage libraries were synthesized by introducing amino acid mutations, and in a similar manner to the above, their binding to human IgG was analyzed by surface plasmon resonance (SPR) analysis to evaluate the contribution of each amino acid substitution to affinity.
In general terms: In SPR one partner is held on a chip, and binding of the other changes the refractive index at the surface.

[1] abbreviates: SPR, synthetic peptide binding to human IgG, read-out: Kd.
Where [2] appears, read: SPR sensorgram analysis, human IgG.
[3] abbreviates: SPR sensorgram analysis, human IgG, read-out: affinity (Kd value).

Usually Kd stands for the free concentration of one partner at which half of the binding sites on the other are occupied at equilibrium, for simple one-to-one binding. Take `CC(C)C[C@@H]1NC(=O)[C@H](CC(=O)O)NC(=O)CNC(=O)[C@H](CC(N)=O)NC(=O)[C@H]([C@@H](C)O)NC(=O)[C@H](Cc2ccc(O)cc2)NC(=O)[C@H]([C@@H](C)O)NC(=O)[C@@H](NC(=O)[C@@H](N)CC(=O)O)CSSC[C@@H](C(=O)N[C@H](C(N)=O)[C@@H](C)O)NC(=O)[C@H](Cc2c[nH]c3ccccc23)NC(=O)[C@H](C(C)C)NC1=O` [GFc-C35-3/15 (N10D), DCTYTNGDLVWCT] (H-DCTYTNGDLVWCT-NH2; disulfide 2-12): the “affinity compared with the original peptide, in words” value is given as “more or less improved affinity”. Besides, the Kd under setting [1] came out at 80 µM.
In the same order, the values of `CC(C)C[C@@H]1NC(=O)[C@H](CCC(=O)O)NC(=O)CNC(=O)[C@H](CC(N)=O)NC(=O)[C@H]([C@@H](C)O)NC(=O)[C@H](Cc2ccc(O)cc2)NC(=O)[C@H]([C@@H](C)O)NC(=O)[C@@H](NC(=O)[C@@H](N)CC(=O)O)CSSC[C@@H](C(=O)N[C@H](C(N)=O)[C@@H](C)O)NC(=O)[C@H](Cc2c[nH]c3ccccc23)NC(=O)[C@H](C(C)C)NC1=O` [GFc-C35-3/15 (N10E), DCTYTNGELVWCT] (H-DCTYTNGELVWCT-NH2; disulfide 2-12; N-terminus and C-terminus assumed) are “higher affinity than the original peptide” and 26 µM.
The corresponding values for `CC(C)C[C@@H]1NC(=O)[C@H](CCC(N)=O)NC(=O)CNC(=O)[C@H](CC(N)=O)NC(=O)[C@H]([C@@H](C)O)NC(=O)[C@H](Cc2ccc(O)cc2)NC(=O)[C@H]([C@@H](C)O)NC(=O)[C@@H](NC(=O)[C@@H](N)CC(=O)O)CSSC[C@@H](C(=O)N[C@H](C(N)=O)[C@@H](C)O)NC(=O)[C@H](Cc2c[nH]c3ccccc23)NC(=O)[C@H](C(C)C)NC1=O` [GFc-C35-3/15 (N10Q), DCTYTNGQLVWCT] (H-DCTYTNGQLVWCT-NH2; disulfide 2-12; N-terminus and C-terminus assumed) are “almost equal affinity” and 160 µM.
In the same order, the values of `CC(C)C[C@@H]1NC(=O)[C@H](CCCNC(=N)N)NC(=O)CNC(=O)[C@H](CC(N)=O)NC(=O)[C@H]([C@@H](C)O)NC(=O)[C@H](Cc2ccc(O)cc2)NC(=O)[C@H]([C@@H](C)O)NC(=O)[C@@H](NC(=O)[C@@H](N)CC(=O)O)CSSC[C@@H](C(=O)N[C@H](C(N)=O)[C@@H](C)O)NC(=O)[C@H](Cc2c[nH]c3ccccc23)NC(=O)[C@H](C(C)C)NC1=O` [GFc-C35-3/15 (N10R), DCTYTNGRLVWCT] (H-DCTYTNGRLVWCT-NH2; disulfide 2-12) are “higher affinity than the original peptide” and 42 µM.
For the molecule `CC(C)C[C@@H]1NC(=O)[C@H](CC(N)=O)NC(=O)CNC(=O)[C@H](CC(N)=O)NC(=O)[C@H]([C@@H](C)O)NC(=O)[C@H](Cc2ccc(O)cc2)NC(=O)[C@H](C)NC(=O)[C@@H](NC(=O)[C@@H](N)CC(=O)O)CSSC[C@@H](C(=O)N[C@H](C(N)=O)[C@@H](C)O)NC(=O)[C@H](Cc2c[nH]c3ccccc23)NC(=O)[C@H](C(C)C)NC1=O` [GFc-C35-3/15 (T5A), DCAYTNGNLVWCT] (H-DCAYTNGNLVWCT-NH2; disulfide 2-12), the “affinity compared with the original peptide, in words” value was “highest affinity”. In addition, the Kd under setting [1] is 61 µM.
With `CC(C)C[C@@H]1NC(=O)[C@H](CCC(=O)O)NC(=O)CNC(=O)[C@H](CCCNC(=N)N)NC(=O)[C@H](Cc2c[nH]cn2)NC(=O)[C@H](Cc2ccc(O)cc2)NC(=O)[C@H](C)NC(=O)[C@@H](NC(=O)[C@@H](N)CC(=O)O)CSSC[C@@H](C(=O)N[C@H](C(N)=O)[C@@H](C)O)NC(=O)[C@H](Cc2c[nH]c3ccccc23)NC(=O)[C@H](C(C)C)NC1=O` [GFc-C35-3/15 (T5A, T7H, N8R, N10E), DCAYHRGELVWCT] (H-DCAYHRGELVWCT-NH2; disulfide 2-12), under setting [2], the “association rate constant ka” value is 4.6×10^5 M^−1S^−1 and the “dissociation rate constant kd” value was 2.5×10^−2 S^−1. The Kd under setting [3] was determined as 0.054 µM. Further, the “fold increase in affinity (fold decrease in Kd value)” value (relative to original peptide GFc-C35-3/15) was “approximately 2400 fold”.
In the case of `CC(C)C[C@@H]1NC(=O)[C@H](CCC(=O)O)NC(=O)CNC(=O)[C@H](CCCNC(=N)N)NC(=O)[C@H](Cc2c[nH]cn2)NC(=O)[C@H](Cc2c[nH]c3ccccc23)NC(=O)[C@H](C)NC(=O)[C@@H](NC(=O)[C@@H](N)CC(=O)O)CSSC[C@@H](C(=O)N[C@H](C(N)=O)[C@@H](C)O)NC(=O)[C@H](Cc2c[nH]c3ccccc23)NC(=O)[C@H](C(C)C)NC1=O` [GFc-C35-3/15 (T5A, Y6W, T7H, N8R, N10E), DCAWHRGELVWCT], under setting [2], the “association rate constant ka” value was 5.4×10^4 M^−1S^−1 and the “dissociation rate constant kd” value is 1.4×10^−2 S^−1. The Kd under setting [3] stood at 0.257 µM. Under “SPR, human IgG”, the “association rate constant ka relative to GFc-C35-3/15 (T5A, T7H, N8R, N10E)” value is given as “⅛”. Further, the Kd under setting [1] came to 0.26 µM.
For `CC(C)C[C@@H]1NC(=O)[C@H](CC(N)=O)NC(=O)CNC(=O)[C@H](CC(N)=O)NC(=O)[C@H]([C@@H](C)O)NC(=O)[C@H](Cc2ccc(O)cc2)NC(=O)[C@H](CO)NC(=O)[C@@H](NC(=O)[C@@H](N)CC(=O)O)CSSC[C@@H](C(=O)N[C@H](C(N)=O)[C@@H](C)O)NC(=O)[C@H](Cc2c[nH]c3ccccc23)NC(=O)[C@H](C(C)C)NC1=O` [GFc-C35-3/15 (T5S), DCSYTNGNLVWCT] (H-DCSYTNGNLVWCT-NH2; disulfide 2-12), the Kd under setting [1] worked out at 120 µM.
For the molecule `CC(C)C[C@@H]1NC(=O)[C@H](CC(N)=O)NC(=O)CNC(=O)[C@H](CC(N)=O)NC(=O)[C@H](Cc2c[nH]cn2)NC(=O)[C@H](Cc2ccc(O)cc2)NC(=O)[C@H]([C@@H](C)O)NC(=O)[C@@H](NC(=O)[C@@H](N)CC(=O)O)CSSC[C@@H](C(=O)N[C@H](C(N)=O)[C@@H](C)O)NC(=O)[C@H](Cc2c[nH]c3ccccc23)NC(=O)[C@H](C(C)C)NC1=O` [GFc-C35-3/15 (T7H), DCTYHNGNLVWCT] (H-DCTYHNGNLVWCT-NH2; disulfide 2-12), the Kd under setting [1] was determined as 3 µM.
The same measure, in the same setting: with `CC(C)C[C@@H]1NC(=O)[C@H](CC(N)=O)NC(=O)CNC(=O)[C@H](CCCNC(=N)N)NC(=O)[C@H](Cc2c[nH]cn2)NC(=O)[C@H](Cc2ccc(O)cc2)NC(=O)[C@H]([C@@H](C)O)NC(=O)[C@@H](NC(=O)[C@@H](N)CC(=O)O)CSSC[C@@H](C(=O)N[C@H](C(N)=O)[C@@H](C)O)NC(=O)[C@H](Cc2c[nH]c3ccccc23)NC(=O)[C@H](C(C)C)NC1=O` [GFc-C35-3/15 (T7H, N8R), DCTYHRGNLVWCT] (H-DCTYHRGNLVWCT-NH2; disulfide 2-12) the figure was 1.1 µM.
For the molecule `CC(C)C[C@@H]1NC(=O)[C@H](CCC(=O)O)NC(=O)CNC(=O)[C@H](CCCNC(=N)N)NC(=O)[C@H](Cc2c[nH]cn2)NC(=O)[C@H](Cc2ccc(O)cc2)NC(=O)[C@H]([C@@H](C)O)NC(=O)[C@@H](NC(=O)[C@@H](N)CC(=O)O)CSSC[C@@H](C(=O)N[C@H](C(N)=O)[C@@H](C)O)NC(=O)[C@H](Cc2c[nH]c3ccccc23)NC(=O)[C@H](C(C)C)NC1=O` [GFc-C35-3/15 (T7H, N8R, N10E), DCTYHRGELVWCT] (H-DCTYHRGELVWCT-NH2; disulfide 2-12), the “affinity compared with the parent peptide, in words” value is reported as “affinity-enhancing effect”. The Kd under setting [1] was determined as 0.27 µM.
Take `CC(C)C[C@@H]1NC(=O)[C@H](CC(N)=O)NC(=O)CNC(=O)[C@H](CCCNC(=N)N)NC(=O)[C@H](Cc2c[nH]cn2)NC(=O)[C@H](Cc2ccc(O)cc2)NC(=O)[C@H](C)NC(=O)[C@@H](NC(=O)[C@@H](N)CC(=O)O)CSSC[C@@H](C(=O)N[C@H](C(N)=O)[C@@H](C)O)NC(=O)[C@H](Cc2c[nH]c3ccccc23)NC(=O)[C@H](C(C)C)NC1=O` [GFc-C35-3/15 (T7H, N8R, T5A), DCAYHRGNLVWCT] (H-DCAYHRGNLVWCT-NH2; disulfide 2-12): the “affinity compared with the parent peptide, in words” value is reported as “affinity-enhancing effect”. For the same molecule, the Kd under setting [1] was 0.25 µM.
In the same order, the values of `CC[C@H](C)[C@@H]1NC(=O)[C@H](CC(C)C)NC(=O)[C@H](CC(N)=O)NC(=O)CNC(=O)[C@H](CCCNC(=N)N)NC(=O)[C@H](Cc2c[nH]cn2)NC(=O)[C@H](Cc2ccc(O)cc2)NC(=O)[C@H]([C@@H](C)O)NC(=O)[C@@H](NC(=O)[C@@H](N)CC(=O)O)CSSC[C@@H](C(=O)N[C@H](C(N)=O)[C@@H](C)O)NC(=O)[C@H](Cc2c[nH]c3ccccc23)NC1=O` [GFc-C35-3/15 (T7H, N8R, V12I), DCTYHRGNLIWCT] (H-DCTYHRGNLIWCT-NH2; disulfide 2-12) are “reduced affinity” and 4.8 µM.
In the same order, the values of `CC(C)C[C@@H]1NC(=O)[C@H](CC(N)=O)NC(=O)CNC(=O)[C@H](CCCNC(=N)N)NC(=O)[C@H](Cc2c[nH]cn2)NC(=O)[C@H](Cc2c[nH]c3ccccc23)NC(=O)[C@H]([C@@H](C)O)NC(=O)[C@@H](NC(=O)[C@@H](N)CC(=O)O)CSSC[C@@H](C(=O)N[C@H](C(N)=O)[C@@H](C)O)NC(=O)[C@H](Cc2c[nH]c3ccccc23)NC(=O)[C@H](C(C)C)NC1=O` [GFc-C35-3/15 (T7H, N8R, Y6W), DCTWHRGNLVWCT] (H-DCTWHRGNLVWCT-NH2; disulfide 2-12) are “reduced affinity” and 2 µM.
Take `CC(C)C[C@@H]1NC(=O)[C@H](CC(N)=O)NC(=O)CNC(=O)[C@H](CC(N)=O)NC(=O)[C@H](CCCNC(=N)N)NC(=O)[C@H](Cc2ccc(O)cc2)NC(=O)[C@H]([C@@H](C)O)NC(=O)[C@@H](NC(=O)[C@@H](N)CC(=O)O)CSSC[C@@H](C(=O)N[C@H](C(N)=O)[C@@H](C)O)NC(=O)[C@H](Cc2c[nH]c3ccccc23)NC(=O)[C@H](C(C)C)NC1=O` [GFc-C35-3/15 (T7R), DCTYRNGNLVWCT] (H-DCTYRNGNLVWCT-NH2; disulfide 2-12): the Kd under setting [1] turned out to be 83 µM.
